From ChEMBL document CHEMBL1154180, “Pyrazole-based arylalkyne cathepsin S inhibitors. Part II: optimization of cellular potency” (Bioorg Med Chem Lett, 2009)
pIC50: −log10 of the molar value.

Key:
[1] = target: T1, Cathepsin S (Homo sapiens, UniProt P25774); test: Inhibition of cathepsin S in human JY cells assessed as invariant chain li degradation by Western blotting; assay type: cell-based
[2] = target: T1, Cathepsin S; test: Inhibition of human recombinant cathepsin S expressed in baculovirus by FRET assay

T1 sequence (P25774 whole entry): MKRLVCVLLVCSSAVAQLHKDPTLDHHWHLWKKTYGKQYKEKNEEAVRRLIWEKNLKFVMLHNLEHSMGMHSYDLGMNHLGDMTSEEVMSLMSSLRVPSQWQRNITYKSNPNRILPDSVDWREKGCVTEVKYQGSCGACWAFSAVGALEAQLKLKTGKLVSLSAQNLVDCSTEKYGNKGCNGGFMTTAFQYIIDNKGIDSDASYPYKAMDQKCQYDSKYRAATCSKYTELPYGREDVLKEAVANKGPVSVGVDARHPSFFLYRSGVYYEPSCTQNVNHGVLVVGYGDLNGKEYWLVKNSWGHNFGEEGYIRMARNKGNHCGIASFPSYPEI

Structure (SMILES) | pIC50 [1] | pIC50 [2]
CS(=O)(=O)N1CCc2c(c(-c3ccc(Cl)c(C#Cc4ccc(CNS(=O)(=O)c5ccccc5)cc4)c3)nn2CCCN2CCOCC2)C1 | < 5.00 | 6.80
CS(=O)(=O)N1CCc2c(c(-c3ccc(Cl)c(C#Cc4ccc(Cl)cc4)c3)nn2CC(O)CN2CCOCC2)C1 (centres undefined) | < 5.00 | 6.85
CC(C)(C)OC(=O)N1CCN(CC(O)Cn2nc(-c3ccc(Cl)c(C#Cc4ccc(Cl)cc4)c3)c3c2CCN(S(C)(=O)=O)C3)CC1 (centres undefined) | < 5.00 | 6.82
COC(=O)[C@H](NCc1ccc(C#Cc2cc(-c3nn(CCCN4CCOCC4)c4c3CN(S(C)(=O)=O)CC4)ccc2Cl)cc1)c1ccccc1 | < 5.00 | 7.00
COC(=O)[C@@H](NCc1ccc(C#Cc2cc(-c3nn(CCCN4CCOCC4)c4c3CN(S(C)(=O)=O)CC4)ccc2Cl)cc1)c1ccccc1 | < 5.00 | –
CS(=O)(=O)N1CCc2c(c(-c3ccc(Cl)c(C#Cc4ccc(CNC(=O)c5ccccc5)cc4)c3)nn2CCCN2CCOCC2)C1 | < 5.00 | –
CS(=O)(=O)N1CCc2c(c(-c3ccc(Cl)c(C#Cc4ccc(Cl)cc4)c3)nn2CC(O)CN2CCNCC2)C1 (centres undefined) | < 5.00 | 6.42
CC(C)(C)OC(=O)N1CCC(C2CCN(C[C@H](O)Cn3nc(-c4ccc(Cl)c(C#Cc5ccc(Cl)cc5)c4)c4c3CCN(S(C)(=O)=O)C4)CC2)CC1 | < 5.00 | –
CNCc1ccc(C#Cc2cc(-c3nn(CCCN4CCOCC4)c4c3CN(S(C)(=O)=O)CC4)ccc2Cl)cc1 | < 5.00 | 5.89
CN(Cc1ccccc1)Cc1ccc(C#Cc2cc(-c3nn(CCCN4CCOCC4)c4c3CN(S(C)(=O)=O)CC4)ccc2Cl)cc1 | < 5.00 | 6.22
COC(=O)C1CCN(CC(O)Cn2nc(-c3ccc(Cl)c(C#Cc4ccc(Cl)cc4)c3)c3c2CCN(S(C)(=O)=O)C3)CC1 (centres undefined) | < 5.00 | –
CS(=O)(=O)N1CCc2c(c(-c3ccc(Cl)c(C#Cc4ccc(Cl)cc4)c3)nn2CC(O)CN2CCCCC2)C1 (centres undefined) | < 5.00 | –
CS(=O)(=O)N1CCc2c(c(-c3ccc(Cl)c(C#Cc4ccc(CN)cc4)c3)nn2CCCN2CCOCC2)C1 | 5.00 | 6.31
CS(=O)(=O)N1CCc2c(c(-c3ccc(Cl)c(C#Cc4ccc(Cl)cc4)c3)nn2CC(O)CN2CCC(C(N)=O)CC2)C1 (centres undefined) | < 5.00 | –

Further lines, results first:

pIC50 [1] | pIC50 [2] | Structure (SMILES)
6.70 | – | CS(=O)(=O)N1CCc2c(c(-c3ccc(Cl)c(C#Cc4ccc(Cl)cc4)c3)nn2C[C@@H](O)CN2CCC(C3CCNCC3)CC2)C1
5.74 | – | CS(=O)(=O)N1CCc2c(c(-c3ccc(Cl)c(C#Cc4ccc(CNCc5ccc(Cl)c(Cl)c5)cc4)c3)nn2CCCN2CCOCC2)C1
5.96 | – | Cc1ccc(CNCc2ccc(C#Cc3cc(-c4nn(CCCN5CCOCC5)c5c4CN(S(C)(=O)=O)CC5)ccc3Cl)cc2)cc1
6.14 | – | CN1CCC(C2CCN(C[C@H](O)Cn3nc(-c4ccc(Cl)c(C#Cc5ccc(Cl)cc5)c4)c4c3CCN(S(C)(=O)=O)C4)CC2)CC1
5.24 | – | CS(=O)(=O)N1CCc2c(c(-c3ccc(Cl)c(C#Cc4ccc(CNCCc5ccccc5)cc4)c3)nn2CCCN2CCOCC2)C1
6.09 | – | COc1ccc(CNCc2ccc(C#Cc3cc(-c4nn(CCCN5CCOCC5)c5c4CN(S(C)(=O)=O)CC5)ccc3Cl)cc2)cc1
5.77 | – | CS(=O)(=O)N1CCc2c(c(-c3ccc(Cl)c(C#Cc4ccc(CN[C@@H](CO)c5ccccc5)cc4)c3)nn2CCCN2CCOCC2)C1
5.82 | 6.85 | CS(=O)(=O)N1CCc2c(c(-c3ccc(Cl)c(C#Cc4ccc(CNCc5ccc(Cl)cc5)cc4)c3)nn2CCCN2CCOCC2)C1
5.00 | – | CC(=O)N1CCC(C2CCN(C[C@H](O)Cn3nc(-c4ccc(Cl)c(C#Cc5ccc(Cl)cc5)c4)c4c3CCN(S(C)(=O)=O)C4)CC2)CC1
5.38 | 6.38 | CS(=O)(=O)N1CCc2c(c(-c3ccc(Cl)c(C#Cc4ccc(CNCc5ccccc5)cc4)c3)nn2CCCN2CCOCC2)C1
